Assays:
[1] = 101.33 kPa, Liquid, Vibrating tube method
[2] = xn = mol fraction of the nth substance listed; conditions: 101 kPa, Liquid, Vibrating tube method

CN(C)C=O [dimethylformamide]
[1]
Conditions | mass density [kg/m3]
293.15 K | 948.79
298.15 K | 943.87
303.15 K | 938.98
308.15 K | 934.07
313.15 K | 929.11
318.15 K | 924.04
323.15 K | 918.91

CNC=O [N-methylformamide]
[1]
Conditions | mass density [kg/m3]
293.15 K | 1003.59
298.15 K | 999.19
303.15 K | 994.75
308.15 K | 990.33
313.15 K | 985.78
318.15 K | 981.23
323.15 K | 976.57

CCCC[N+]1(C)CCCC1.O=S(=O)([N-]S(=O)(=O)C(F)(F)F)C(F)(F)F + CN(C)C=O
mass density [kg/m3], [2]
Conditions | x1 = 0.0912 | x1 = 0.1871 | x1 = 0.2922 | x1 = 0.3783 | x1 = 0.4845 | x1 = 0.5809 | x1 = 0.6768 | x1 = 0.7744 | x1 = 0.8686
293.15 K | 1074.98 | 1161.1 | 1224.53 | 1262.14 | 1298.31 | 1324.74 | 1346.86 | 1366.1 | 1381.39
298.15 K | 1070.09 | 1156.23 | 1219.62 | 1257.32 | 1293.53 | 1319.99 | 1342.16 | 1361.38 | 1376.73
303.15 K | 1065.22 | 1151.35 | 1214.77 | 1252.53 | 1288.82 | 1315.37 | 1337.55 | 1356.72 | 1372.14
308.15 K | 1060.4 | 1146.5 | 1210 | 1247.8 | 1284.1 | 1310.7 | 1332.9 | 1352 | 1367.6
313.15 K | 1055.43 | 1141.58 | 1205.17 | 1243.01 | 1279.29 | 1306.04 | 1328.25 | 1347.28 | 1363.02
318.15 K | 1050.48 | 1136.63 | 1200.26 | 1238.22 | 1274.53 | 1301.32 | 1323.54 | 1342.91 | 1358.3
323.15 K | 1045.36 | 1131.55 | 1195.32 | 1233.32 | 1269.65 | 1296.48 | 1318.83 | 1338.2 | 1353.61
